Test results published in US4368261A, “Method and reagent for the determination of triglycerides” (priority 1979, dated 1983).

Experiments:
Assay in all cases: Stability of glycerokinase in the presence of dichlorophenol at 25° C. (Table 2)
Assay type in all cases: biochemical
[1] = target: glycerokinase (GK) from Bacillus stearothermophilis (Geobacillus stearothermophilus, UniProt A0ACH1EBP7)
From the text: (§1) It is known that Bacillus stearothermophilis contains a glycerokinase (see J. Appl. Bac., 38, 301-304/1975). However, it could not be deduced from this that this glycerokinase would display a good stability towards the mentioned group of activators which would permit its use together with these activators.

[2] = target: T1, glycerokinase (GK) from Escherichia coli (commercially available) (Escherichia coli, UniProt P0A6F3)
T1 construct: purchased
From the text: as §1

[3] = test system: glycerokinase (GK, E.C. 2.7.1.30) from Candida mycoderma
From the text: as §1

Substance: dichlorophenol
- residual activity after 30 min. ([1]; 2 mM dichlorophenol): 100%
- residual activity after 60 min. ([1]; 2 mM dichlorophenol): 100%
- residual activity after 30 min. ([1]; 5 mM dichlorophenol): 100%
- residual activity after 60 min. ([1]; 5 mM dichlorophenol): 100%
- residual activity after 30 min. ([2]; 2 mM dichlorophenol): 93%
- residual activity after 60 min. ([2]; 2 mM dichlorophenol): 87%
- residual activity after 30 min. ([2]; 5 mM dichlorophenol): 81%
- residual activity after 60 min. ([2]; 5 mM dichlorophenol): 58%
- residual activity after 30 min. ([3]; 2 mM dichlorophenol): 68%
- residual activity after 60 min. ([3]; 2 mM dichlorophenol): 56%
- residual activity after 30 min. ([3]; 5 mM dichlorophenol): 18%
- residual activity after 60 min. ([3]; 5 mM dichlorophenol): 7%
